Data published in patent publication US9028856B2, “Synergistic pesticide compositions” (priority 2008, dated 2015).

Key:
[1] = tested on: Aedes aegypti mosquito; experiment: USDA Petri Dish Method, 3 min exposure to treated glazed tile; format: in vivo; conditions: Table 37, resmethrin/adjuvant in acetone, glazed tile, 3 min exposure
How it was run: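 Resmethrin or clothianidin in acetone, with or without adjuvant, applied to glazed tile and dried overnight; twenty 4-6 day old female mosquitoes exposed 3 minutes, then moved to clean index card. Knockdown scored at intervals over hours; mortality at 24 hours with sucrose provided; at least three replicates.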

[2] = tested on: Culex quinquefasciatus mosquito; experiment: USDA Petri Dish Method, 3 min exposure to treated glazed tile (twenty 4-6 day old females); format: in vivo; conditions: for Average % Knockdown & Mortality after 3 min / Average % Knockdown & Mortality after 15 min / Average % Knockdown & Mortality after 30 min / Average % Knockdown & Mortality after 60 min / Average % Knockdown & Mortality after 2 hr / Average % Knockdown & Mortality after 24 hr: in vivo; for Average % Mortality after 1 hr / Average % Mortality after 3 hr / Average % Mortality after 5 hr / Average % Mortality after 24 hr: Table 77, carbaryl study, Culex quinquefasciatus; for Average % Mortality after 1 hr: glazed tile, 3 min exposure, adjuvant = Compound A 1% + Compound B 0.5%
Protocol: MATERIALS AND METHODS: Solutions of resmethrin at 1 and 0.5% AI were prepared with and without adjuvant in acetone. […] USDA Petri Dish Method was used as initial screening protocol. Twenty, 4-6 day old female Culex quinquefasciatus mosquitoes were exposed to each treatment for 3 minutes and then moved to a clean untreated white paper index card. Treatments were replicated a minimum of three times. Mosquito knockdown was evaluated at 3 minute intervals for the first 15 minutes and then at 5 minute intervals for the remainder of an hour. A small cotton ball soaked in sucrose solution was added on the screen top of the petri-dish as a drinking source after the 2 hour evaluation. Mortality was evaluated at 24 hours after exposure.
(§1) Treatments were allowed to dry overnight. USDA Petri Dish Method was used as initial screening protocol. Twenty, 4-6 day old female Culex mosquitoes were exposed to each treatment for 3 minutes and then moved to a clean untreated white paper index card. Treatments were replicated a minimum of three times. Mosquito knockdown was evaluated at various intervals through 3 hours after exposure. A small cotton ball soaked in sucrose solution was added on the screen top of the petri-dish as a drinking source. Mortality was evaluated at 24 hours after exposure.
as §1, with “female Culex quinquefasciatus mosquitoes were” for “female Culex mosquitoes were”, “intervals through 2 hours after” for “intervals through 3 hours after”, “solution was then added on” for “solution was added on”
as §1, with “Culex quinquefasciatus” for “Culex”, “hourly intervals.” for “intervals through 3 hours after exposure.”, “source after 2 hours.” for “source.”

[3] = tested on: Musca domestica, susceptible strain WHO(N); experiment: Contact efficacy against houseflies on filter papers in glass dishes; format: in vivo; conditions: % a.i. conc. in acetone on filter papers, Table 97
Protocol: Male Musca domestica, susceptible strain WHO(N), were used.
A solution of the active ingredient in acetone was prepared. A concentration row was made. After evaporation of the acetone (30′), the dishes were closed by a glass lid and transferred into the test room. One day later twenty flies, anaesthetized with CO2, are counted into each dish. At regular intervals, knock down was recorded (cumulatively). Each test consisted of one replicate. […]

[4] = tested on: Musca domestica, susceptible strain WHO(N); experiment: Efficacy of formulations on surfaces (glazed/unglazed tiles), house flies, continuous exposure; format: in vivo; conditions: strain WHO(N) susceptible, acetone solutions on glazed tiles, mean of three replicates
Protocol: A flat fan nozzle (type SS 8003-E) in a spray cabin was moved automatically over a defined area where the solutions were sprayed very evenly onto the surfaces. The formulation was mixed with water to give a concentration which corresponded to the desired quantity of a.i./m^2. A defined quantity of this solution was sprayed onto the area (nominal 350 liter/ha=0.77 ml per surface).
All surfaces were provided with talcum-coated glass rings (diameter 9.5 cm, height 5.5 cm) one day later.
The test insects were anesthetized with CO2, 20 individuals were placed onto the treated surfaces and the glass ring was covered with wire gauze ring.
Knock down was determined after 15 and 30′, 1, 2, 4 and 6 hours, mortality after 1 day exposure.
Each test consisted of at least one replicate and any additional replicates are noted.
Test Insects: House flies (Musca domestica) of both sexes, susceptible strain WHO(N) and resistant strain Reichswald
Evaluation: Mortality was evaluated cumulatively at different times. […]
Test Insects: Culex quinquefasciatus (adults) (3 minutes exposure time according to USDA Petri Dish Method), Musca domestica (adults), susceptible and resistant strain, Blattella germanica (males), Cimex lectularius (adults) (all: continuous exposure time)
Application: The EC formulation (diluted with water 1:9) were applied as 0.85 ml solutions onto glazed tiles (15 cm×15 cm)
Evaluation: Knock down after 15, and 30 minutes, 1, 2, 3, 4, 6 and 24 hours (mortality)
Test Insects: Culex quinquefasciatus (adults, susceptible) (3 minutes exposure time according to USDA Petri Dish Method), Musca domestica (adults, susceptible and resistant), Blattella germanica (males, susceptible) (both: continuous exposure time)
Formulations: Insecticide with or without 10% Compound A (as EC), to be diluted with water (1 part formulation+9 parts water)
Evaluation: Knock down after 3, 9 (mosquitoes only), 15, and 30 minutes, 1, 2, 3, 4 and 24 hours (mortality) […]

[5] = format: physicochemical; conditions: classified from Log P
Excerpt: As used herein, a “partition coefficient” is defined as the ratio of concentrations of an un-ionized compound between solutions of water and octanol. To measure the partition coefficient of ionizable solutes, the pH of the aqueous phase is adjusted such that the predominant form of the compound is un-ionized. The logarithm of the ratio of the concentrations of the un-ionized solute in the solvents is referred to herein as log P or log K ow.
As noted herein, the octanol-water partition coefficient may be used to identify the cuticular penetration of a particular active ingredient. One factor in the relative speed through which any insecticide acts is the insecticide's ability to cross the insect cuticle. A determining factor for cuticle penetration is Log K ow, also known as Log P. Log K ow (Log P) is the octanol-water partition coefficient for a neutral molecule. Log P is used hereinfurther, but, as noted above, the term is synonymous with Log K ow. As previously noted, the cuticular penetration of any particular active ingredient as against a plant cuticle is not indicative of that same active ingredient's ability to penetrate an insect cuticle.
The cuticular penetration of a compound is classified as “INTERMEDIATE” when the Log P value is between about 2.0 and about 4.0.

With `CC(C)=CC1C(C(=O)OCc2coc(Cc3ccccc3)c2)C1(C)C` (stereo not shown) [Resmethrin (1%)] the “Average % Knockdown & Mortality after 3 min” value [1] was 66%, the “Average % Knockdown & Mortality after 15 min” value [1] was 100% and the “Average % Knockdown & Mortality after 30 min” value [1] was 100%. The “Average % Knockdown & Mortality after 60 min” value [1] was 100%, the “Average % Knockdown & Mortality after 24 hr” value [1] was 100% and the “Average % Knockdown & Mortality after 3 min” value [2] was 0%. The “Average % Knockdown & Mortality after 15 min” value [2] was 2%, the “Average % Knockdown & Mortality after 30 min” value [2] was 13% and the “Average % Knockdown & Mortality after 60 min” value [2] was 11%. For the same compound, the “Average % Knockdown & Mortality after 2 hr” value [2] was 2% and the “Average % Knockdown & Mortality after 24 hr” value [2] was 4%.
With `CC1(C)[C@H](C(=O)O[C@H](C#N)c2cccc(Oc3ccccc3)c2)[C@@H]1C=C(Br)Br` [0.00032% DTM] the “% knock down after” value ([3]; 15′) was 0%, the “% knock down after” value ([3]; 30′) was 0% and the “% knock down after” value ([3]; 1 h) was 5%. The “% knock down after” value ([3]; 1.5 h) was 30%, the “% knock down after” value ([3]; 2 h) was 50% and the “% knock down after” value ([3]; 3 h) was 65%. For the same compound, the “% knock down after” value ([3]; 4 h) was 65%, the “% knock down after” value ([3]; 6 h) was 60% and the “% knock down after” value ([3]; 1 d) was 95%.
With `CC1(C)[C@H](C(=O)O[C@H](C#N)c2cccc(Oc3ccccc3)c2)[C@@H]1C=C(Br)Br` [0.001% DTM] the “% Mortality after” value ([4]; 15′) was 2%, the “% Mortality after” value ([4]; 30′) was 18% and the “% Mortality after” value ([4]; 1 h) was 58%. For the same compound, the “% Mortality after” value ([4]; 2 h) was 80%, the “% Mortality after” value ([4]; 3 h) was 88% and the “% Mortality after” value ([4]; 24 h) was 92%.
With `CNC(=O)Oc1cccc2ccccc12` [carbaryl (2.5%)] the “Average % Mortality after 1 hr” value [2] was 0%, the “Average % Mortality after 3 hr” value [2] was 0% and the “Average % Mortality after 5 hr” value [2] was 2%. The “Average % Mortality after 24 hr” value [2] was 5%.
In the case of `CC1(C)[C@H](C(=O)O[C@H](C#N)c2cccc(Oc3ccccc3)c2)[C@@H]1C=C(Br)Br` [0.0000128% DTM], the “% knock down after” value ([3]; 15′) is reported as 0%, the “% knock down after” value ([3]; 30′) is reported as 0% and the “% knock down after” value ([3]; 1 h) is reported as 0%. The “% knock down after” value ([3]; 1.5 h) was 0%, the “% knock down after” value ([3]; 2 h) was 0% and the “% knock down after” value ([3]; 3 h) was 0%. For the same compound, the “% knock down after” value ([3]; 4 h) was 0%, the “% knock down after” value ([3]; 6 h) was 15% and the “% knock down after” value ([3]; 1 d) was 70%.
For `CC(C)=CC1C(C(=O)OCc2coc(Cc3ccccc3)c2)C1(C)C` (stereo not shown) [Resmethrin (0.5%)], the “Average % Knockdown & Mortality after 3 min” value [1] was 0%, the “Average % Knockdown & Mortality after 15 min” value [1] was 0% and the “Average % Knockdown & Mortality after 30 min” value [1] was 0%. For the same compound, the “Average % Knockdown & Mortality after 60 min” value [1] was 0%, the “Average % Knockdown & Mortality after 24 hr” value [1] was 8% and the “Average % Knockdown & Mortality after 3 min” value [2] was 0%. For the same compound, the “Average % Knockdown & Mortality after 15 min” value [2] was 0%, the “Average % Knockdown & Mortality after 30 min” value [2] was 0% and the “Average % Knockdown & Mortality after 60 min” value [2] was 0%. For the same compound, the “Average % Knockdown & Mortality after 2 hr” value [2] was 0% and the “Average % Knockdown & Mortality after 24 hr” value [2] was 0%.
For `CCOP(=S)(OCC)Oc1cc(C)nc(C(C)C)n1` [diazinon], the “Likelihood of Direct Insect Cuticular Penetration” value [5] was “Intermediate (classified as “INTERMEDIATE” when the Log P value is between about 2.0 and about 4.0)”.
For `CCOP(=S)(OCC)Oc1nc(Cl)c(Cl)cc1Cl` [chlorpyrifos], the “Likelihood of Direct Insect Cuticular Penetration” value [5] was “Fast (classified as “FAST” when it has a Log P value of about >4.0)”.
For `CNC(=O)Oc1cccc2c1OC(C)(C)O2` [0.01% = 5 mg Bendiocarb/m^2], the “% KD and Mortality 3′” value ([2]; Table 73, in acetone, glazed tiles, 20 insects (three replicates), 3′ exposure time, 3′) was 0%, the “% KD and Mortality 9′” value ([2]; Table 73, in acetone, glazed tiles, 20 insects, 3′ exposure time, 9′) was 0% and the “% KD and Mortality 15′” value ([2]; Table 73, in acetone, glazed tiles, 20 insects, 3′ exposure time, 15′) was 0%. The “% KD and Mortality 30′” value ([2]; Table 73, in acetone, glazed tiles, 20 insects, 3′ exposure time, 30′) was 0%, the “% KD and Mortality 1 h” value ([2]; Table 73, in acetone, glazed tiles, 20 insects, 3′ exposure time, 1 h) was 0% and the “% KD and Mortality 24 h” value ([2]; Table 73, in acetone, glazed tiles, 20 insects, 3′ exposure time, 24 h) was 0%.
For `CC1(C)C(C=C(Br)Br)C1C(=O)OC(C#N)c1cccc(Oc2ccccc2)c1` (stereo not shown) [0.0016% DTM], the “% knock down after” value ([3]; 15′) was 0%, the “% knock down after” value ([3]; 30′) was 5% and the “% knock down after” value ([3]; 1 h) was 70%. The “% knock down after” value ([3]; 1.5 h) was 90%, the “% knock down after” value ([3]; 2 h) was 100% and the “% knock down after” value ([3]; 3 h) was 100%. The “% knock down after” value ([3]; 4 h) was 100%, the “% knock down after” value ([3]; 6 h) was 100% and the “% knock down after” value ([3]; 1 d) was 95%.
In the case of `CC1(C)[C@H](C(=O)O[C@H](C#N)c2cccc(Oc3ccccc3)c2)[C@@H]1C=C(Br)Br` [0.000064% DTM], the “% knock down after” value ([3]; 15′) is reported as 0%, the “% knock down after” value ([3]; 30′) is reported as 0% and the “% knock down after” value ([3]; 1 h) is reported as 0%. The “% knock down after” value ([3]; 1.5 h) was 0%, the “% knock down after” value ([3]; 2 h) was 0% and the “% knock down after” value ([3]; 3 h) was 0%. The “% knock down after” value ([3]; 4 h) was 0%, the “% knock down after” value ([3]; 6 h) was 15% and the “% knock down after” value ([3]; 1 d) was 80%.
For `CNC(=O)Oc1cccc2ccccc12` [carbaryl (5%)], the “Average % Mortality after 1 hr” value [2] was 0%, the “Average % Mortality after 3 hr” value [2] was 0% and the “Average % Mortality after 5 hr” value [2] was 0%. The “Average % Mortality after 24 hr” value [2] was 0%.
With `CNC(=O)Oc1cccc2ccccc12` [carbaryl (0.1%)] the “Average % Mortality after 1 hr” value [2] was 0% and the “Average % Mortality after 3 hr” value [2] was 0%.
